Data reported in PubChem BioAssay AID1918934 (Molecular Pharmacology Branch, DTP, NCI, 2023).
“And” between values parts separate entries of the source, which are not always exact repeats. Equal values may be shown once.

System: 292921-168-R-J2-PDC complex spheroid viability
Test: Anticancer human tumor 292921-168-R-J2-PDC patient-derived pancreatic carcinoma cell line growth inhibition
Conditions: for viability, T/C: stronger effect = lower value
From the text: Multicellular complex tumor spheroid response to LSD1 Inhibitor Iadademstat in combination with a variety of drugs and investigational agents in selected tumor cell lines
The current study was undertaken to assess response to LSD1 inhibitors in combination with standard-of-care drugs and investigational agents in solid tumor complex spheroid models as well as in the K-562 leukemia. Complex spheroids include a stromal component modeled by human endothelial cells (HUVEC) and fibroblasts modeled by human mesenchymal stem cells (MSCs). The concentration ranges selected for each drug and investigational agent were based upon clinically achievable concentrations if the clinical Cmax of the agent was known.
Compounds. The drugs and investigational agents used in this study are listed on Table 1. All of the agents used, including staurosporine (NSC755774) and gemcitabine (NSC613327), were obtained from the Developmental Therapeutics Program, NCI. FDA-approved anticancer drugs are available from the NCI at http://dtp.nci.nih.gov/branches/dscb/oncology_drugset_explanation.html. Drugs and investigational agents were >95% pure by proton nuclear magnetic resonance (NMR) and liquid chromatography/mass spectrometry (LC/MS). Stock solutions were prepared at 400x in DMSO, stored at -70 degrees C, and diluted in fresh medium prior to their use. The final concentration of DMSO in cell culture wells never exceeded 0.25% (v/v). The FDA-approved anticancer drug set is available from the Developmental Therapeutics Program at https://dtp.cancer.gov/organization/dscb/obtaining/available_plates.htm. All drugs and investigational agents were tested over a range starting from a high concentration at or near the clinical Cmax and decreasing in half-log increments. If the clinical Cmax for an agent had not been determined, the highest concentration tested was 10 microM.
Cell Lines. The patient-derived cancer cell (PDC) lines: 292921-168-R-J2-PDC, K24384-001-R-PDC, and 521955-158-R2-J5-PDC pancreatic carcinomas, 556581-035-R-J1 ovarian carcinoma, 324938-238-R-J1-PDC, 855422-203-R-J1-PDC and 883617-216-R-J1-PDC urothelial bladder carcinomas, 743489-274-T-PDC renal cell carcinoma, 138582-R-J1 Merkel cell tumor, K60290-347-R-J1 and K57222-313-R-J1-PDC glioblastomas, 653999-131-R-J2-PDC, LG0703-F948-PDC, and 349418-098-R-PDC non-small cell lung carcinomas, 885512-296-R-J2-PDC, 171881-019-R-J1-PDC breast carcinomas and 186277-243-T-J2-PDC and 233499-124-R-J2-PDC colon carcinomas were obtained from the NCI Patient-Derived Models Repository (PDMR, https://pdmr.cancer.gov). The established cell lines NCI/ADR-RES (RRID:CVCL_14520 and OVCAR-5 (RRID:CVCL_1628) ovarian carcinomas, 786-O (RRID:CVCL_1051) and A498 (RRID:CVCL_A498) renal cell carcinoma, NCI-H211 (ATCC, cat. CRL-5824; RRID:CVCL_1529), NCI-H196 (ATCC, cat. CRL-5823, RRID:CVCL_1509), SW 1271 (ATCC, cat. CRL-2177, RRID:CVCL_1716) and NCI-H1876 (ATCC, cat. CRL-5902, RRID:CVCL_1503) small cell lung carcinomas, MDA-MB-231 (RRID:CVCL_0062) and MDA-MB-468 (RRID:CVCL_0419)breast carcinomas (10-12). Pooled donor human umbilical vein endothelial cells (HUVEC, Lonza, cat. CC-2519) and human mesenchymal stem cells (hMSC, Lonza, cat. PT-2501) were purchased from Lonza (Walkersville, MD).
Cell Culture. All cells were maintained in an incubator at 37 degrees C and 5% CO2 with 95% humidity. The PDC lines were cultured according to standard operating procedures established by the NCI PDMR (https://pdmr.cancer.gov). Briefly all PDCs were thawed and cultured in Matrigel-coated flasks prepared with a working solution of 1X Ham's F-12 nutrient mix, without supplementation (Invitrogen, Waltham, MA, cat. 11765054), 100 U/mL penicillin-streptomycin (Invitrogen, cat. 15140122), and 2.5% Matrigel (Corning Inc., Corning, NY, cat. 354248) for the first three passages. […]

[1] = curve of first compound, second compound 0.1 µM
[2] = curve of first compound, second compound 0.316 µM
[3] = curve of first compound, second compound 1 µM
[4] = curve of first compound, second compound 3.16 µM
[5] = curve of first compound, second compound 10 µM
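Further: seven day compound exposure before luminescent viability read.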
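Wherever viability, T/C is given: 100% = DMSO vehicle control wells.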

For CC(C)CC(NC(=O)C(Cc1ccccc1)NC(=O)c1cnccn1)B(O)O (stereo not given), the viability, T/C (compound 0.000316 µM) was 18.8% and 20.7%, the viability, T/C (compound 0.001 µM) was 0.9% and 1.54% and the viability, T/C (compound 0.00316 µM) was 0.34% and 1.04%. The viability, T/C (compound 0.01 µM) was 0.42% and 0.8%, the viability, T/C (compound 0.0316 µM) was 0.19% and 0.21% and the viability, T/C (compound 0.1 µM) was 0.21%. The IC50 (curve of compound) was less than 0.316 nM.
In the case of CC1(C)CCC(CN2CCN(c3ccc(C(=O)NS(=O)(=O)c4ccc(NCC5CCOCC5)c([N+](=O)[O-])c4)c(Oc4cnc5[nH]ccc5c4)c3)CC2)=C(c2ccc(Cl)cc2)C1 + NC1CCC(NC2CC2c2ccccc2)CC1, the IC50 [1] is reported as 1640 nM, the IC50 [2] is reported as 1310 nM and the IC50 [3] is reported as 1330 nM. For the same molecule, the IC50 [4] was 1260 nM, the IC50 [5] was 1110 nM and the viability, T/C (second compound 0.1 µM, first compound 0.0316 µM) was 63.5%. For the same molecule, the viability, T/C (second compound 0.1 µM, first compound 0.1 µM) was 71.4%, the viability, T/C (second compound 0.1 µM, first compound 0.316 µM) was 73.3% and the viability, T/C (second compound 0.1 µM, first compound 1 µM) was 72.4%. It also gave a viability, T/C (second compound 0.1 µM, first compound 3.16 µM) of 23.2%, a viability, T/C (second compound 0.1 µM, first compound 10 µM) of 0.18% and a viability, T/C (second compound 0.316 µM, first compound 0.0316 µM) of 66.3%. For the same molecule, the viability, T/C (second compound 0.316 µM, first compound 0.1 µM) was 60.1%, the viability, T/C (second compound 0.316 µM, first compound 0.316 µM) was 68.2% and the viability, T/C (second compound 0.316 µM, first compound 1 µM) was 60.1%. It also gave a viability, T/C (second compound 0.316 µM, first compound 3.16 µM) of 15.8%, a viability, T/C (second compound 0.316 µM, first compound 10 µM) of 0.25% and a viability, T/C (second compound 1 µM, first compound 0.0316 µM) of 53%. For the same molecule, the viability, T/C (second compound 1 µM, first compound 0.1 µM) was 58.8%, the viability, T/C (second compound 1 µM, first compound 0.316 µM) was 65.4% and the viability, T/C (second compound 1 µM, first compound 1 µM) was 67.6%. For the same molecule, the viability, T/C (second compound 1 µM, first compound 3.16 µM) was 16.2%, the viability, T/C (second compound 1 µM, first compound 10 µM) was 0.26% and the viability, T/C (second compound 3.16 µM, first compound 0.0316 µM) was 58.1%. It also gave a viability, T/C (second compound 3.16 µM, first compound 0.1 µM) of 60.9%, a viability, T/C (second compound 3.16 µM, first compound 0.316 µM) of 62.3% and a viability, T/C (second compound 3.16 µM, first compound 1 µM) of 59.4%. For the same molecule, the viability, T/C (second compound 3.16 µM, first compound 3.16 µM) was 12.2%, the viability, T/C (second compound 3.16 µM, first compound 10 µM) was 0.14% and the viability, T/C (second compound 10 µM, first compound 0.0316 µM) was 64.2%. For the same molecule, the viability, T/C (second compound 10 µM, first compound 0.1 µM) was 64%, the viability, T/C (second compound 10 µM, first compound 0.316 µM) was 66.4% and the viability, T/C (second compound 10 µM, first compound 1 µM) was 53.4%. For the same molecule, the viability, T/C (second compound 10 µM, first compound 3.16 µM) was 12.7% and the viability, T/C (second compound 10 µM, first compound 10 µM) was 0.23%.
With Nc1ccccc1NC(=O)c1ccc(CNC(=O)OCc2cccnc2)cc1 the viability, T/C (compound 0.00949 µM) was 67.9% and 65.7%, the viability, T/C (compound 0.03 µM) was 45.2% and 49.2% and the viability, T/C (compound 0.0949 µM) was 31% and 31.7%. The viability, T/C (compound 0.3 µM) was 17.2% and 19.8%, the viability, T/C (compound 0.949 µM) was 4.09% and 5.39% and the viability, T/C (compound 3 µM) was 0.29% and 0.27%. For the same molecule, the IC50 (curve of compound) was 24.9 nM and 28.3 nM.
In the case of Nc1ccn(C2OC(CO)C(O)C2(F)F)c(=O)n1 (stereo not given), the viability, T/C (compound 0.000949 µM) is reported as 39.2% and 33.5%, the viability, T/C (compound 0.003 µM) is reported as 12% and 10.8% and the viability, T/C (compound 0.00949 µM) is reported as 6.12% and 5.67%. For the same molecule, the viability, T/C (compound 0.03 µM) was 5.81% and 5.6%, the viability, T/C (compound 0.0949 µM) was 8.04% and 6.06% and the viability, T/C (compound 0.3 µM) was 6.84% and 5.56%. For the same molecule, the IC50 (curve of compound) was less than 0.949 nM.
Work on Nc1ccn(C2OC(CO)C(O)C2(F)F)c(=O)n1 (stereo not given) + NC1CCC(NC2CC2c2ccccc2)CC1 yielded an IC50 [1] of less than 0.949 nM, an IC50 [2] of less than 0.949 nM and an IC50 [3] of less than 0.949 nM. For the same molecule, the IC50 [4] was less than 0.949 nM, the IC50 [5] was less than 0.949 nM and the viability, T/C (second compound 0.1 µM, first compound 0.000949 µM) was 27.8%. The viability, T/C (second compound 0.1 µM, first compound 0.003 µM) was 9.83%, the viability, T/C (second compound 0.1 µM, first compound 0.00949 µM) was 8.07% and the viability, T/C (second compound 0.1 µM, first compound 0.03 µM) was 6.88%. The viability, T/C (second compound 0.1 µM, first compound 0.0949 µM) was 7.25%, the viability, T/C (second compound 0.1 µM, first compound 0.3 µM) was 6.85% and the viability, T/C (second compound 0.316 µM, first compound 0.000949 µM) was 28.2%. It also gave a viability, T/C (second compound 0.316 µM, first compound 0.003 µM) of 11.6%, a viability, T/C (second compound 0.316 µM, first compound 0.00949 µM) of 6.99% and a viability, T/C (second compound 0.316 µM, first compound 0.03 µM) of 6.4%. It also gave a viability, T/C (second compound 0.316 µM, first compound 0.0949 µM) of 8.06%, a viability, T/C (second compound 0.316 µM, first compound 0.3 µM) of 7.6% and a viability, T/C (second compound 1 µM, first compound 0.000949 µM) of 21.8%. The viability, T/C (second compound 1 µM, first compound 0.003 µM) was 10.7%, the viability, T/C (second compound 1 µM, first compound 0.00949 µM) was 8.29% and the viability, T/C (second compound 1 µM, first compound 0.03 µM) was 7.78%. The viability, T/C (second compound 1 µM, first compound 0.0949 µM) was 8.71%, the viability, T/C (second compound 1 µM, first compound 0.3 µM) was 7.52% and the viability, T/C (second compound 3.16 µM, first compound 0.000949 µM) was 22.2%. The viability, T/C (second compound 3.16 µM, first compound 0.003 µM) was 10.4%, the viability, T/C (second compound 3.16 µM, first compound 0.00949 µM) was 8.35% and the viability, T/C (second compound 3.16 µM, first compound 0.03 µM) was 7.52%. It also gave a viability, T/C (second compound 3.16 µM, first compound 0.0949 µM) of 8.12%, a viability, T/C (second compound 3.16 µM, first compound 0.3 µM) of 8.1% and a viability, T/C (second compound 10 µM, first compound 0.000949 µM) of 23.4%. For the same molecule, the viability, T/C (second compound 10 µM, first compound 0.003 µM) was 10.2%, the viability, T/C (second compound 10 µM, first compound 0.00949 µM) was 9% and the viability, T/C (second compound 10 µM, first compound 0.03 µM) was 9.62%. It also gave a viability, T/C (second compound 10 µM, first compound 0.0949 µM) of 8.3% and a viability, T/C (second compound 10 µM, first compound 0.3 µM) of 9.08%.
In the case of CC(C)CC(NC(=O)CNC(=O)c1cc(Cl)ccc1Cl)B1OC(=O)CC(CC(=O)O)(C(=O)O)O1 (stereo not given), the viability, T/C (compound 0.000316 µM) is reported as 99.1% and 96.2%, the viability, T/C (compound 0.001 µM) is reported as 113% and 105% and the viability, T/C (compound 0.00316 µM) is reported as 87.8% and 85.7%. For the same molecule, the viability, T/C (compound 0.01 µM) was 17% and 20.2%, the viability, T/C (compound 0.0316 µM) was 6.27% and 3.15% and the viability, T/C (compound 0.1 µM) was 0.79% and 0.83%. For the same molecule, the IC50 (curve of compound) was 5.86 nM and 5.94 nM.
COc1cc(Nc2ncc3c(n2)-c2ccc(Cl)cc2C(c2c(F)cccc2OC)=NC3)ccc1C(=O)O was tested, and the viability, T/C (compound 0.00316 µM) was 33% and 38.1%, the viability, T/C (compound 0.01 µM) was 40.7% and 42.1% and the viability, T/C (compound 0.0316 µM) was 36% and 39.1%. The viability, T/C (compound 0.1 µM) was 30.2% and 37.9%, the viability, T/C (compound 0.316 µM) was 27.7% and 29.6% and the viability, T/C (compound 1 µM) was 16.1% and 17.5%. The IC50 (curve of compound) was less than 3.16 nM.
